# Results reported in patent US5473039A, “Polypeptide analogs of apolipoprotein E, diagnostic systems and methods using the analogs” (The Scripps Research Institute, priority 1991, dated 1995).
# Ends that are not written are not given here.
# Columns and labels:
# [1] = test system: Human peripheral blood mononuclear (PBM) cells; assay: PHA-stimulated PBM cell proliferation in serum-free CFBI medium; type: cell-based; conditions: for IC50: read-out: Average Specific Activity (peptide concentration that causes a 50% reduction in activity)
# Experimental: In these studies, human peripheral blood mononuclear (PBM) cells were isolated and assayed for phytohemagglutinin (PHA)-stimulated proliferation as described by Pepe et al (J. Immunol., 136:3716-3723, 1986) except that the cells were resuspended and cultured in a serum-free and protein-free CFBI medium as described by Shive et al, Proc. Natl. Acad. Sci. […] After 48 h the cultures were pulsed for 18 h with […] of [^3 H]-methylthymidine and harvested onto glass fiber filters. Radioactivity of the filters was counted in a Beckman liquid scintillation counter. […] The average biological activity of each polypeptide for inhibiting lymphocyte […] proliferation is shown in Table 6, and is expressed as an average specific activity, which is the peptide concentration that causes a 50% reduction in activity.
# fibroblast LDL receptors = molecular target: T1, fibroblast LDL receptors (Homo sapiens, UniProt P01130); assay: 125I-LDL binding to fibroblasts; conditions: for effect of substitution on ability to inhibit binding of 125I-LDL to fibroblasts: substitution at both positions of tandem peptide
# T1 construct: transferred to DMEM medium with 10% lipoprotein-depleted serum (LPDS) for 48 hr to upregulate the LDL receptors; endogenous in cells; host or cells: normal fibroblasts
# T1 sequence (P01130 22-860): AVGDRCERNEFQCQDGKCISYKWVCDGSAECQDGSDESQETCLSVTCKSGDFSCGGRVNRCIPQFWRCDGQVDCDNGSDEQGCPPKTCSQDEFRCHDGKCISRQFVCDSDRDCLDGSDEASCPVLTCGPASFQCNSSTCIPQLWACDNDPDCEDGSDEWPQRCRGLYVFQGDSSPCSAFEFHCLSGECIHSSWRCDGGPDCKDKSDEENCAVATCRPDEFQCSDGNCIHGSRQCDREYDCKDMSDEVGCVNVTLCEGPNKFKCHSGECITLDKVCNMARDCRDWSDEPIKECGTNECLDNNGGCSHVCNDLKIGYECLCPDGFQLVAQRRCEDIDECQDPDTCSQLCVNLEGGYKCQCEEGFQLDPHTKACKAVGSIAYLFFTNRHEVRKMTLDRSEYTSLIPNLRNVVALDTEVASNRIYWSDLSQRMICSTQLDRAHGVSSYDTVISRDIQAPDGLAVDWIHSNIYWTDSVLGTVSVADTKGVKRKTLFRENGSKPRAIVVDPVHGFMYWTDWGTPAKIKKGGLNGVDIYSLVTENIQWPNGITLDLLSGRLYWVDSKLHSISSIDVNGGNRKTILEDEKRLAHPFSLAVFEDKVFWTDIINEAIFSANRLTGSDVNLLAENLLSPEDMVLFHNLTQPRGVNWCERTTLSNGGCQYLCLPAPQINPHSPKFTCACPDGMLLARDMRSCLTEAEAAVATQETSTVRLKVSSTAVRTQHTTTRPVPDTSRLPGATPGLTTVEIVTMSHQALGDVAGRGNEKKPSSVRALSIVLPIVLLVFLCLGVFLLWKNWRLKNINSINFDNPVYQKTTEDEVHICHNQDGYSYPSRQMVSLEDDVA
# Description: The role of specific amino acids within residues 141-155 of intact apo E has been studied by Lalazar et al., J. Biol. Chem., 263:3542 (1988) with human apo E variants containing single amino acid substitutions. The variants were produced in a bacterial expression system complexed with the phospholipid, dimyristoylphosphatidylcholine (DMPC) and tested for their ability to bind to fibroblast LDL receptors. Lalazar et al., J. Biol. Chem., 263:3542 (1988). To confirm that the tandem peptide was bound by the LDL receptor and to identify amino acids within this peptide that were critical for binding, three tandem peptides were prepared as described in Example 1 that contained the same amino acid substitutions at both positions in the tandem sequence. The changes included substitutions of the basic amino acids Lys 143 to Ala, Arg 150 to Ala, and Leu 144 with an alpha helix disrupting amino acid, Pro. ^125 I-LDL at a specific activity of 700-900 cpm/ng (>99% precipitable by 10% TCA) was used for the binding assay as described in Example 9. Normal fibroblasts were plated in 16 mm culture dishes, grown for 72-96 hr in DMEM medium with 10% fetal bovine serum (FBS) and then transferred to DMEM medium with 10% lipoprotein-depleted serum (LPDS) for 48 hr to upregulate the LDL receptors. The amount of ^125 I-LDL bound per well was normalized to the protein content of each well, which was measured with the Bio-Rad protein assay reagent using bovine serum albumin (BSA) as a standard.
# [2] = test system: Human peripheral blood mononuclear (PBM) cells; assay: PHA-stimulated lymphocyte proliferation (3H-thymidine uptake); type: cell-based; conditions: for ED50 or dose of peptide required to inhibit lymphocyte proliferation 50%: Example 17
# Description: A lymphocyte cell culture system was used to examine the ability of various polypeptides and conjugates to mimic the ability of Apo E to inhibit lymphocyte differentiation as evidence by proliferation.
# Human peripheral blood mononuclear (PBM) cells are isolated from whole blood on a Ficoll-Hypaque gradient. The collected PBMs are washed three times with fresh medium (RPMI-1640 plus 5% fetal bovine serum, glutamine, penicillin, streptomycin and HEPES buffer). After washing, the cells are counted and set at a density of 1×10^5 /ml. For culture, 0.2 ml of the cells are plated per well of a 96-well microtiter plate. The peptide or conjugate is added to the wells in a 50 ul volume that can be either filter or UV sterilized. The typical timing for this experiment is to expose the cells to the Apo E polypeptide or self-conjugate over night. PHA, the mitogen that stimulates lymphocyte growth and proliferation, is added the next day. Forty-eight hours after the addition of PHA, 1 uCi of ^3 H-thymidine is added per well in a 1 ul volume and 18-24 hours later the cells are harvested on a mash. The mash cell harvester functions to collect the cells on filter paper where they are washed with buffer to remove free ^3 H-thymidine. The filter papers are dried, put into scintillation vials with scintillation cocktail and the B emissions obtained. Each data point collected represents the average thymidine uptake in four wells, and the standard error was less than 10% for all data points.
# Various concentrations of various Apo E peptide were added to cultures that contained 8×10^5 peripheral blood mononuclear cells per ml. The cells were cultured at 37C and RPMI with 5% serum. All cells were exposed to PHA at 24 hours, labeled with 3H-thymidine at 72 hours and harvested at 90 hours. The counts per minute (cpm) of 3H-thymidine in the harvested cells was measured, and the data are expressed as the mean of four wells per treatment as a measure of thymidine uptake (x 1000 cpm). The standard deviation was less than 10% for all means.
# LDL receptor = LDL receptor (Homo sapiens, UniProt P01130); assay: fibroblast 125I-LDL degradation; type: cell-based; set-up: transferred to DMEM medium with 10% lipoprotein-depleted serum (LPDS) for 48 hr to upregulate the LDL receptors; endogenous in cells; host or cells: normal fibroblasts; conditions: molar basis
# LDL receptor, sequence (P01130 22-860): as above
# Experimental: A trimer of the p141-155 peptide, p(141-155)3, was synthesized as in Example 1 and its activity compared with p(141-155) (monomeric) and with p(141-155)2 (dimeric) peptide. Normal fibroblasts were plated in wells of a 96-well culture plate and grown for 96 hr in DMEM medium with 10% FBS. The cells were transferred to DMEM medium with 10% LPDS for 48 hr to up regulate the LDL receptors. The LDL degradation assay was performed according to Example 9 with 2 μg/ml of ^125 I-LDL (300-500 cpm/ng) in 0.2 ml/well in DMEM medium with 10% LPDS and incubated for 5 hr at 37° C. The supernatants removed from the wells were extracted with 10% TCA. The TCA soluble counts were normalized to protein content per well as measured by the Bio-Rad protein assay.
# [3] = test system: ovarian theca/interstitial cells; assay: ovarian androgen (androstenedione) production, LH-stimulated cultures; type: cell-based, rats; conditions: non-conjugated, monomeric form
# Description: The cell system used to examine the effect of various peptides and conjugates on ovarian androgen production was that described by Curtiss et al., J. Biol. Chem., 263:10965, (1988). Briefly, hypophysectomized (pituitary removed) immature female rats are sacrificed by cervical dislocation. The ovaries taken from the rats were trimmed free of fat and other non-ovarian tissues, cut into approximately six to eight pieces per ovary and dissociated in a solution of collagenase Dnaase which degrades the connective tissue releasing cell clusters. Approximately one to two hours of 37C incubation is required to dissociate the tissue. The cells were washed three times with fresh McCoy's 5A modified medium supplemented with glutamine and penicillin/streptomycin. No serum was added to this medium. The cells were cultured over night in 10 ml of medium in a T-25 flask to allow the non-steroidogenic cells to adhere. The next day non-adherent cells were recovered, washed three times with fresh media, counted and plated at a density of 1×10^3/ ml aliquotting 0.2 ml per well of a 96-well microtiter plate. All media in the experiment contains luteinizing hormone (LH) at 4 ng/ml and human high density lipoprotein (HDL) at 300 μg protein/mi. Monomeric peptides, peptide-BSA conjugates and self-conjugated peptide preparations at various concentrations (0.2 to 50 μg/ml) were added to the cells. The cells were then cultured for 48 hours at 37C, the supernatants were recovered, transferred to a clean 96-well microtiter plate and kept at -20C until the concentrations of androstenedione and progesterone were measured by radioimmunoassay. Each data point represents the average of measured androstenedione concentrations in four wells per treatment, and the standard error was less than 10% for all data points.
# The ability of tandem Apo E peptide p(141-155)2 and self-conjugates of this peptide to affect ovarian androgen production was examined using the assay described in Example 4. […] After 48 hours of culture, the supernatants were collected, the androstenedione concentration measured by radioimmunoassay. […]
substance,measurement,setting,value
LRALRKRLLRDADDLLRALRKRLLRDADD [p(K143 --A)2],peptide concentration above which uptake of tritiated thymidine / lymphocyte proliferation was inhibited,[1],above 4 uM
same,IC50,[1],5.6 ± 1.7 µM
same,effect of substitution on ability to inhibit binding of 125I-LDL to fibroblasts,fibroblast LDL receptors,smallest effect
Y(LRKLRKRLLRDADDL)4 [Tetramer],inhibitory activity relative to the dimer,[1]; molar basis,twice
same,IC50,[1],2.8 ± 1.3 µM
same,ED50 or dose of peptide required to inhibit lymphocyte proliferation 50%,[2],1.2 µM
"LRKPRKRLLRDADDLLRKPRKRLLRDADDL [144 leu--pro, (LRKPRKRLLRDADDL)2]",activity in inhibiting 125I-LDL binding to fibroblasts,fibroblast LDL receptors; at 60 μM,no activity
"Self-conjugated apo AI95-105: self-conjugated control peptide of apo AI residues 95-105 (AKVQPYLDDFQ; also: self-conjugated; UniProt P02647 119-129, looked up, fragment) [reference compound]","3H-Thymidine Uptake (cpm ± SD), With Washing","[2]; 40 μg/ml, cells washed three times at 24 hr prior to PHA","64,524 ± 4,200 cpm"
same,"3H-Thymidine Uptake (cpm ± SD), No Washing","[2]; 40 μg/ml, no washing","83,480 ± 4,027 cpm"
LRKLRKRLLADADDLLRKLRKRLLADADD [p(K150 --A)2],peptide concentration above which uptake of tritiated thymidine / lymphocyte proliferation was inhibited,[1],above 4 uM
same,IC50,[1],7.5 ± 3 µM
same,effect of substitution on ability to inhibit binding of 125I-LDL to fibroblasts,fibroblast LDL receptors,without significant alterations in the biological activity
LRKLRKRLLRDADDLLRKLRKRLLRDADD-LRKLRKRLLRDADDL [p(141-155)3],effectiveness in inhibiting fibroblast 125I-LDL degradation relative to the dimeric peptide,LDL receptor,15 times
same,ED50 or dose of peptide required to inhibit lymphocyte proliferation 50%,[2],7 µM
"RGLSAIRERL [p172-182, reference compound]",effect on androgen secretion,[3],no effect
